Measurements: patent US10792263B2, “Method of treating an individual having a microbial infection” (Sun Yat-sen University, priority 2012, dated 2020)
Read-outs that look alike come from different tables or passages of the source.

Assays:
[1] = system: E. coli K12 BW25113; details: for increase of bactericidal effect, serum plus glycine versus serum: 100 μL human serum plus 100 mM glycine
Description: (§1) Sample preparation: Single colonies of the parent strain E. coli K12 BW25113 are picked from Luria-Bertani (LB) agar plate, inoculated into 5 mL LB medium and incubated with shaking at 200 rpm, 37° C. for 16 hours. Cultures are then diluted 1:100 (v/v) in 200 mL fresh LB medium and grow to an OD600 of 1.0 at 37° C. with shaking. Cells are collected by centrifugation at 8000 rpm for 10 minutes at 4° C. and washed with 0.85% saline once.
To understand whether glycine enhances the bactericidal effect of serum, experiments are carried out in 3 scenarios: the same volume of human serum mixed with different concentrations of glycine, different volumes of human serum mixed with the same concentration of glycine, and these mixtures are treated for different incubation periods.
Bacterial cells are prepared according to Example 1.1. Glycine is added to a final concentration of 0, 5, 10, 30, 50 and 100 mM and the mixtures are cultured for 1 hour at 37° C. with shaking at 200 rpm. Then 100 μL of human serum or saline are added as test and control groups, respectively. Bacteria are cultured for 2 hours and collected by centrifugation. Cells are resuspended with 1 mL of saline. Live bacterial cells are counted on LB agar plate. Survival rate is calculated as follows: number of live bacteria cells after treatment with different concentrations of glycine supplementation/number of live bacteria cells after treatment with saline×100%.
Bacterial samples are prepared and added with 100 mM glycine and cultured for 1 hour at 37° C. with shaking at 200 rpm. Then 0, 20, 40, 60, 80 or 100 μL human serum is added and cultured for 2 hours at 37° C. with shaking at 200 rpm. The controls are not mixed with glycine but only with different volumes of human serum. Bacteria are collected by centrifugation and resuspended with 1 mL of saline for spot-plate counting. The survival rate is calculated as follows: the number of live bacteria cells after treatment with glycine plus different volumes of human serum/the number of live cells after treatment with only human serum×100%.
The prepared bacterial samples are divided into 4 groups and treated separately as follows: with 100 mM glycine, 100 μL human serum, 100 μL human serum plus 100 mM glycine or saline alone as control. The mixtures are cultured for 0.5, 1, 2, 3, and 4 hours at 37° C. with shaking at 200 rpm. Bacteria are collected by centrifugation and resuspended in 1 mL saline. Bacteria are counted using LB agar plates. The survival rate is calculated as follows: the number of live bacteria after treatment with serum and/or glycine in different times/the number of live bacteria in the saline control group×100%.

[2] = system: E. coli K12 BW25113, E. coli clinical strain Y17, beta-hemolytic Streptococcus, Vibro alginolyticus, Vibro parahaemolyticus, Pseudomonas aeruginosa and …; details: 125-175 μL human serum plus 100-150 mM glycine, 4 hours
Description: as §1

[3] = system: E. coli K12 BW25113, E. coli clinical strain Y17, Vibro alginolyticus, Vibro parahaemolyticus, Pseudomonas aeruginosa and Staphylococcus aureus; details: 100 μL serum/plasma of different animals plus 100 mM glycine, 4 hour
Description: as §1
A variety of bacteria (E. coli K12 BW25113, E. coli clinical strain Y17, Vibro alginolyticus, Vibro parahaemolyticus, Pseudomonas aeruginosa and Staphylococcus aureus) are cultured as described in Example 1.1. Aliquots of 3 mL bacteria are collected with OD600 of 1.0. Then, 100 μL serum/plasma from different animals or 100 μL serum/plasma of different animals plus 100 mM glycine are added and 100 mM glycine alone is used a control. Cells are cultured for 4 hour at 37° C. with shaking at 200 rpm. Bacteria are resuspended with 1 mL of saline. Absorbance is measured at 600 nm.

[4] = system: E. coli K12 BW25113; details: mice, 6 times, blood at 48 hours
Description: (§2) A total of 15 6-week-old mice (purchased from the Laboratory Animals Center of Sun Yat-sen University) are randomly divided into three groups: saline control group and two treatment groups are administered with 3.25 or 6.5 mg glycine/mouse. The compound is intravenously administered at 3.25 or 6.5 mg glycine/injection/mouse every 12 hours and 6 times in total. Mice are intravenously injected 1×10^6 E. coli K12 BW25113 or E. coli clinical isolate Y17 at 12 hours after the last administration of glycine. Blood is withdrawn from mouse tail vein at 48 hours. The clearance of bacteria is determined by plate counting.

[5] = system: E. coli clinical isolate Y17; details: mice, 6 times, blood at 48 hours
Description: as §2

[6] = system: E. coli; assay: Human serum bactericidal assay with threonine, OD600 survival rate; format: cell-based, Escherichia coli; details: 2 hours
Description: The prepared bacterial cells are divided to four groups. […] Absorbance is measured at 600 nm Survival rate is calculated as follows: the OD in groups after treatment with serum, threonine or serum plus threonine/the OD in the control group treated with saline×100%. […] Certain bactericidal effect is detected in the group with serum alone. Compared with the group with serum alone, the group with serum plus threonine has a significant 1.5-fold increase of bactericidal effect.

[7] = 3.25 mg glycine/injection i.v. every 12 hours
[8] = 6.5 mg glycine/injection i.v. every 12 hours

Row | SMILES | increase of the serum bactericidal effect ([1]; 5 mM glycine, 1 h preincubation, then 100 μL human serum for 2 hours, 37° C.) | elevation of serum bactericidal effect, serum volume series ([1]; 100 mM glycine plus 100 μL human serum, 2 hours, versus human serum only) | bactericidal effect of glycine alone ([1]; 100 mM glycine without serum, 0.5 to 4 hours) | increase of the serum bactericidal effect (highest effect) ([1]; 100 mM glycine, 1 h preincubation, then 100 μL human serum for 2 hours, 37° C.) | increase of bactericidal effect, serum plus glycine versus serum ([1]; after 0.5 hours) | increase of bactericidal effect, serum plus glycine versus serum ([1]; after 1 hour) | increase of bactericidal effect, serum plus glycine versus serum ([1]; after 4 hours) | increase of serum bactericidal effect, lower bound over all bacteria tested [2] | increase of serum bactericidal effect, maximum over all bacteria tested [2] | increase of bactericidal effect of animal serum/plasma, maximum [3] | increase of bactericidal effect of animal serum/plasma, minimum [3] | Clearance rate [4, 7] | Clearance rate [4, 8] | Clearance rate [5, 7] | Clearance rate [5, 8] | bactericidal effect of threonine alone ([6]; 100 mM threonine without serum) | increase of bactericidal effect, serum plus threonine versus serum alone ([6]; 100 μL human serum plus 100 mM threonine)
1 | NCC(=O)O [glycine] | 1.36 fold | 86 fold | no bactericidal effect | ~86 fold | 2 fold | 77 fold | 120 fold | more than 1 fold | up to 4.13 fold | ~10 fold | ≥ 1.5 fold | 89.32% | 96.85% | 32.95% | 52.53% |  | 
2 | C[C@@H](O)[C@H](N)C(=O)O [threonine] |  |  |  |  |  |  |  |  |  |  |  |  |  |  |  | no bactericidal effect | 1.5 fold
